Experimental data: patent publication US10752900B2, “Oligonucleotides for modulating gene expression and uses thereof” (BIOGENERA S.P.A., priority 2012, dated 2020)
In the oligonucleotide strings, read from the 5' end, every base follows the letter of its sugar. An asterisk marks phosphorothioate; unmarked linkages are phosphodiester. Other units and linkages are bracketed, terminal groups are in braces. A string of capitals states the bases alone. d = 2'-deoxy (DNA)

Key:
MYCN gene = assay: QT-PCR, MYCN mRNA in RH30 cells; assay type: cell-based, human
Description: For the purpose of assessing the ability of the oligonucleotides of the present invention to modulate the expression of the target genes, their ability to reduce the quantity of messenger RNA was analyzed using the Real-Time PCR technique. For this purpose, use was made of 24-well plates, which were seeded with 5.0×10^4 cells with 0.3 ml of OPTI-MEM (GIBCO BRL) medium, 4% FBS and 2 mM L-glutammine (experiments in triplicate) per well. The cells were incubated for 24 hours at 37° C., in an atmosphere containing 5% CO2 to permit adherence to the base of the wells. Each oligonucleotide analyzed, except for the PNA oligonucleotides, was incubated beforehand with 2 μl of Lipofectamine 2000 (Invitrogen), with 0.3 mL of serum-free OPTI-MEM (GIBCO BRL) medium. For each well, the oligonucleotides were analyzed at the following final concentrations: • the antisense oligonucleotides siRNA and siRNA gapmer (i.e. the oligonucleotides containing one or more monomers of chemically modified nucleic acids at the 3' or 5' end, while in the central portion they have monomers of nucleic acids that have not been modified or have been modified at the level of the phosphodiester bond as a phosphorothioate bond) were used at 200 nM; • the antisense oligonucleotides containing phosphorothioate DNA monomers, the RNA antigene oligonucleotides (agRNA) and the oligonucleotides containing DNA monomers and LNA monomers were used at 10 μM; • the morpholino oligonucleotides were used at a concentration of 1 μM, and • the PNA oligonucleotides were administered at a concentration of 1 μM. The cells were treated with the oligonucleotides, adding FBS up to 4% 6 hours after administration of the same. After 24 hours the total RNA was extracted from each well and purified using the RNeasy Mini Kit (QIAGEN). Assays were performed on 8 cell lines obtained from 5 different human tumours which are correlated with MYCN expression, i.e.: • as a neuroblastoma model use was made of the cell lines Kelly, IMR-32 (where the MYCN gene is amplified and superexpressed) and SKNBE2c and LAN1 (where the MYCN gene is amplified and superexpressed and the p53 gene is mutated); • as a rabdomiosarcoma model use was made of the cell line RH30, where the MYCN gene is amplified and superexpressed; • as a Wilms' tumour model use was made of the cell line WiT49, where the MYCN gene is amplified and superexpressed; • as a retinoblastoma model use was made of the cell line Y79, where the MYCN gene is amplified and superexpressed; and • as a model of small cell lung cancer use was made of the cell line H69 where the MYCN gene is amplified and superexpressed. As a control, use was made of the same cell lines as listed above treated with sterile water instead of oligonucleotides. Each RNA sample was quantified (in duplicate) using a NanoDrop ND-1000 spectrophotometer (NanoDrop Technologies). The first strand of cDNA was produced using the cDNA Synthesis Kit for RT-PCR (Roche). For the cDNA synthesis reaction a total of 1 μg of RNA was used. For the real-time PCR, 10 ng of cDNA in a final volume of 20 μl was used with SYBR Green Master Mix 2× (Applied Biosystems) (3 identical experiments were conducted in triplicate). Two housekeeping genes were used as positive controls: GAPDH and beta-actin (ACTB). The conditions of the QT-PCR reaction were: 10 min at 95° C., 20 sec at 95° C., and 30 sec at 60° C., for 50 cycles. The PNAs having SEQ ID NO: 1-12 were also tested on different cell lines which overexpress MYCN (Kelly, SKNBE2c, RH30, […] 1 and H69). The results are shown in Table 6 and confirm the selectivity and specificity of the inhibition effect of the PNAs on the product of protein translation of the MYCN gene. Chimeric oligonucleotides comprising DNA monomers and LNA monomers and having the MYCN gene as their target were tested in vitro on alveolar rabdomyosarcoma cells (RH30). […]

[1] = tested on: rabdomyosarcoma cells (RH30); assay: Cellular proliferation assay (ATP-Lite), RH30 cells; assay type: cell-based, human
Description: For the purpose of assessing the gene modulation ability of the oligonucleotides of the present invention, the effect of their administration on cell viability was determined. For this purpose 5×10^3 cells per well were seeded into 96-well cell culture plates (experiments conducted in triplicate) with 100 μl of OPTI-MEM (GIBCO BRL) medium containing 4% FBS and 2 mM of L-glutammine. The PNA oligonucleotides were administered at different concentrations (1 μM-2.5 μM-5 μM-10 μM) in order to observe a dose-effect relationship. As regards all the other oligonucleotides, the concentrations at which they administered are listed in the paragraph: The viability of the treated cells was determined at 48, 72, 96 and 168 hours after treatment. Cell viability was assessed by means of an ATP-Lite assay (Luminescence ATP Detection Assay System, PerkinElmer) and is reported as the ratio between the average signal of the treated wells compared to the average value of the wells of untreated control cells. The cells were processed following the instructions provided with the kit. The assays were performed on the same cell lines used to determine the levels of the MYCN gene messenger and listed in the paragraph: Treatments with Oligonucleotides-QT-PCR. The PNAs having SEQ ID NO: 1-12 were also tested on different cell lines which overexpress MYCN (Kelly, SKNBE2c, RH30, […] 1 and H69). The results are shown in Table 6 and confirm the selectivity and specificity of the inhibition effect of the PNAs on the product of protein translation of the MYCN gene. Chimeric oligonucleotides comprising DNA monomers and LNA monomers and having the MYCN gene as their target were tested in vitro on alveolar rabdomyosarcoma cells (RH30). […] The antisense oligonucleotides designed and synthesized by the Applicant according to the parameters described in the present invention were analyzed in vitro on rabdomyosarcoma cells (RH30).

[2] = Table 8, DNA-LNA oligonucleotides used at 10 μM with Lipofectamine 2000
[3] = Table 8, DNA-LNA oligonucleotides used at 10 μM
[4] = Table 9, siRNA and siRNA gapmer used at 200 nM with Lipofectamine 2000
[5] = Table 9, siRNA and siRNA gapmer used at 200 nM
[6] = Table 9, phosphorothioate DNA antisense used at 10 μM with Lipofectamine 2000
[7] = Table 9, phosphorothioate DNA antisense used at 10 μM

Substance	mRNA inhibition (%) (MYCN gene; [4])	Cell Prolif. (%) [1, 5] [%]	also measured
SEQ ID NO: 25: single-stranded chimeric DNA-LNA oligonucleotide ATGCCGGGCATGATCT against MYCN (DNA at AG, LNA at CT, backbone and methylation of C not given here)	–	–	mRNA inhibition (%) (MYCN gene; [2]): 24%; Cell Prolif. (%) [1, 3]: 78%
SEQ ID NO: 33: double-stranded chimeric RNA / 2′O-Methyl siRNA against MYCN, sense GAGGAAGAUGAAGAGGAAGTT, antisense SEQ ID NO: 62 (antisense CUUCCUCUUCAUCUUCCUCTT; RNA with some 2'-O-methyl monomers, positions not given here)	13	85	–
SEQ ID NO: 34: double-stranded chimeric RNA / 2′-Fluoro siRNA against MYCN, sense CAGGAAGAUGAAGAGGAAGUU, antisense SEQ ID NO: 63 (antisense GUUCCUCUUCAUCUUCCUCUU; RNA with some 2'-fluoro monomers, positions not given here)	59	52	–
SEQ ID NO: 27: double-stranded siRNA against MYCN, sense GAUGAUGAAGAGGAAGAUG, antisense SEQ ID NO: 58 (antisense CAUCUUCCUCUUCAUCAUC; listed as RNA, chemistry not given here)	70	43	–
SEQ ID NO: 30: double-stranded siRNA against MYCN, sense GGAAGAUGAAGAGGAAGAA, antisense SEQ ID NO: 61 (antisense UUCUUCCUCUUCAUCUUCC; listed as RNA, chemistry not given here)	81	30	–
SEQ ID NO: 24: single-stranded chimeric DNA-LNA oligonucleotide ATGCCGGGCATGATCT against MYCN (DNA at CT, LNA at AG, backbone and methylation of C not given here)	–	–	mRNA inhibition (%) (MYCN gene; [2]): 23%; Cell Prolif. (%) [1, 3]: 75%
SEQ ID NO: 29: double-stranded siRNA against MYCN, sense GAGGAAGAUGAAGAGGAAG, antisense SEQ ID NO: 60 (antisense CUUCCUCUUCAUCUUCCUC; listed as RNA, chemistry not given here)	85	28	–
SEQ ID NO: 28: double-stranded siRNA against MYCN, sense UGAUGAAGAGGAAGAUGAA, antisense SEQ ID NO: 59 (antisense UUCAUCUUCCUCUUCAUCA; listed as RNA, chemistry not given here)	78	35	–
SEQ ID NO: 31: phosphorothioate DNA antisense oligonucleotide CGTGGAGCAGCTCGGCAT against MYCN (antisense dC*dG*dT*dG*dG*dA*dG*dC*dA*dG*dC*dT*dC*dG*dG*dC*dA*dT)	–	–	mRNA inhibition (%) (MYCN gene; [6]): 34%; Cell Prolif. (%) [1, 7]: 73%
SEQ ID NO: 36: double-stranded chimeric RNA / arabinoside RNA siRNA against MYCN, sense CAGGAAGAUGAAGAGGAAGAA, antisense SEQ ID NO: 65 (antisense GUUCCUCUUCAUCUUCCUCAA; arabinoside modifications, further chemistry not given here)	69	35	–
SEQ ID NO: 32: phosphorothioate DNA antisense oligonucleotide CAGGGTGTCCTCTCCGGA against MYCN (antisense dC*dA*dG*dG*dG*dT*dG*dT*dC*dC*dT*dC*dT*dC*dC*dG*dG*dA)	–	–	mRNA inhibition (%) (MYCN gene; [6]): 45%; Cell Prolif. (%) [1, 7]: 65%
